{
  "source": "paper PMC4667193",
  "about": "(Scientific Reports, 2015)",
  "test_in_all_cases": "[^3H]NMS radioligand competition binding, CHO cell membranes",
  "key": {"Rat M1 mAChR": {"target": "T1, Rat M1 mAChR (Rattus norvegicus, UniProt P08482)", "T1 construct": "host or cells: CHO (CHO-K1) cells", "T1 sequence (P08482 1-460)": "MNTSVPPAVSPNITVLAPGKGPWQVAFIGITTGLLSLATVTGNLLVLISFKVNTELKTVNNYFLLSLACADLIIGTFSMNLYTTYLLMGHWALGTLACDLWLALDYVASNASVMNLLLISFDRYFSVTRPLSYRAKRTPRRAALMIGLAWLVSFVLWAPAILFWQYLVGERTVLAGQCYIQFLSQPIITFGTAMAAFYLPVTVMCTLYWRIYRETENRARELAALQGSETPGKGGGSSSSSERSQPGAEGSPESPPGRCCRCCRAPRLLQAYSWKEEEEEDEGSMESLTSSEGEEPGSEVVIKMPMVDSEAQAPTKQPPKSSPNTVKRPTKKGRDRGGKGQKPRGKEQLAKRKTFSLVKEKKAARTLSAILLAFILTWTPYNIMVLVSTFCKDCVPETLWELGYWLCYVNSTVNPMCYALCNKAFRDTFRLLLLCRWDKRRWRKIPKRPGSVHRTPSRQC", "details": "rat M1, 0.1 nM [^3H]NMS", "method": "(§1) Membranes were prepared from CHO cells stably expressing individual rat mAChRs (rM1 to rM5). Briefly, media was removed, cells were washed with PBS and harvested with PBS into a centrifuge bottle. Cells were spun at 2,000 g for 5 minutes at 4 °C. After harvesting, the supernatant was gently discarded and cold membrane preparation buffer [Hanks’ balanced salt solution (HBSS; Invitrogen), 4.17 mM sodium bicarbonate, 20 mM HEPES and 0.5 mM EDTA] was added (10 mL/dish). Cells were then homogenized for 5–10 seconds with a rotary homogenizer (Polytron®) and centrifuged at 20,000g for 20 minutes at 4 °C. The homogenization/centrifugation cycle was repeated twice. After the last centrifugation, the supernatant was gently discarded and the pellet was resuspended in cold membrane preparation buffer (up to 2 mL). All binding reactions were performed in a total volume of 1 mL containing 25 μg of membrane protein. […] The equilibrium binding was terminated by rapid filtration using a 96-well harvester (Brandel®). Filters were washed three times with ice-cold harvesting buffer and were dried overnight. Radioactivity was counted using a TopCount NXT (PerkinElmer®) and counts were normalized to the maximal specific binding in the presence of vehicle. Saturation and competition binding data were analyzed using a weighted nonlinear least-squares interactive curve-fitting program GraphPad Prism (GraphPad Prism Software version 5.0). A mathematical model for one or two binding sites was applied. The equilibrium dissociation constant (KD) and the binding capacity (Bmax) were determined. The inhibition constant (Ki) was determined from competition curves using the Cheng and Prusoff equation[52]."}, "Rat M3 mAChR": {"target": "T2, Rat M3 mAChR (Rattus norvegicus, UniProt P08483)", "T2 construct": "host or cells: CHO (CHO-K1) cells", "T2 sequence (P08483 whole entry)": "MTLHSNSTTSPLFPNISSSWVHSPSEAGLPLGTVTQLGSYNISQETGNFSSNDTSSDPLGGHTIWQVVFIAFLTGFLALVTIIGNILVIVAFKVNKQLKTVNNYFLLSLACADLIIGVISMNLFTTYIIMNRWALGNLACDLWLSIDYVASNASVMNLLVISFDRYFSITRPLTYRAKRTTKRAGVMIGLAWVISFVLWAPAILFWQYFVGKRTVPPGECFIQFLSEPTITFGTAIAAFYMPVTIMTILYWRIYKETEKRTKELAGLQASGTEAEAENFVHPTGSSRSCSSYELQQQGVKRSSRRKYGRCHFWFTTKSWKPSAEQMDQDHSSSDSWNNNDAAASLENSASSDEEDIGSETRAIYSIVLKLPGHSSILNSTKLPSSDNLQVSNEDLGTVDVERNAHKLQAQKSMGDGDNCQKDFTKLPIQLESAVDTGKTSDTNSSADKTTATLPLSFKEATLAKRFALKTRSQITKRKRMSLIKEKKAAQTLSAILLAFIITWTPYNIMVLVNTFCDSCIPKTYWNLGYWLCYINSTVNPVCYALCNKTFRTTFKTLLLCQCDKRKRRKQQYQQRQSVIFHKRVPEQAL", "details": "rat M3, 0.1 nM [^3H]NMS", "method": "as §1"}, "Rat M2 mAChR": {"target": "T3, Rat M2 mAChR (Rattus norvegicus, UniProt P10980)", "T3 construct": "host or cells: CHO (CHO-K1) cells", "T3 sequence (P10980 1-466)": "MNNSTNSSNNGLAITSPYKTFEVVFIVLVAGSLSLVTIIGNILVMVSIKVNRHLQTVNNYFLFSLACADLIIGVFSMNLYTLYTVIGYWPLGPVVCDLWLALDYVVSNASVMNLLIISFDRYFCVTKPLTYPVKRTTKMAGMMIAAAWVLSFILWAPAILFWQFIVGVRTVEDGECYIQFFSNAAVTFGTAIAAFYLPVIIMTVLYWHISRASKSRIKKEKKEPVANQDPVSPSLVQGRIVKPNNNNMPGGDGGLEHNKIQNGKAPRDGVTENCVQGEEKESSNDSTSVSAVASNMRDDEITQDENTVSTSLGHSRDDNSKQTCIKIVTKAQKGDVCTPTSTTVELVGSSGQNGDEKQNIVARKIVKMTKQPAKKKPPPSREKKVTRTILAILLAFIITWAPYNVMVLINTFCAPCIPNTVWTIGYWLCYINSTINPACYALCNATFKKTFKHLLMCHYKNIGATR", "details": "rat M2, 0.1 nM [^3H]NMS", "method": "as §1"}, "Rat M4 mAChR": {"target": "T4, Rat M4 mAChR (Rattus norvegicus, UniProt P08485)", "T4 construct": "host or cells: CHO (CHO-K1) cells", "T4 sequence (P08485 1-478)": "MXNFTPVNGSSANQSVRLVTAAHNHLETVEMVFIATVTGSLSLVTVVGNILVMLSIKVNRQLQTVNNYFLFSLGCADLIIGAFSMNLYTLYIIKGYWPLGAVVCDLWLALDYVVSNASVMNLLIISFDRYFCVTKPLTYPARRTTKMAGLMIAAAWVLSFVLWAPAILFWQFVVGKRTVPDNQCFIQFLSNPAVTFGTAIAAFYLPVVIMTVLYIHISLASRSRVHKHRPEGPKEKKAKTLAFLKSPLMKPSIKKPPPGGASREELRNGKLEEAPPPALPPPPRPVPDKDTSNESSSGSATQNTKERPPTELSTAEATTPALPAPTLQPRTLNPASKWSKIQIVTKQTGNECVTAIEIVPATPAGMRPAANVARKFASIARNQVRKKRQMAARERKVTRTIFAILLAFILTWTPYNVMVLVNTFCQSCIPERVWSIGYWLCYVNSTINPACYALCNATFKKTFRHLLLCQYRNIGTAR", "details": "rat M4, 0.1 nM [^3H]NMS", "method": "as §1"}, "Rat M5 mAChR": {"target": "T5, Rat M5 mAChR (Rattus norvegicus, UniProt P08911)", "T5 construct": "host or cells: CHO (CHO-K1) cells", "T5 sequence (P08911 1-531)": "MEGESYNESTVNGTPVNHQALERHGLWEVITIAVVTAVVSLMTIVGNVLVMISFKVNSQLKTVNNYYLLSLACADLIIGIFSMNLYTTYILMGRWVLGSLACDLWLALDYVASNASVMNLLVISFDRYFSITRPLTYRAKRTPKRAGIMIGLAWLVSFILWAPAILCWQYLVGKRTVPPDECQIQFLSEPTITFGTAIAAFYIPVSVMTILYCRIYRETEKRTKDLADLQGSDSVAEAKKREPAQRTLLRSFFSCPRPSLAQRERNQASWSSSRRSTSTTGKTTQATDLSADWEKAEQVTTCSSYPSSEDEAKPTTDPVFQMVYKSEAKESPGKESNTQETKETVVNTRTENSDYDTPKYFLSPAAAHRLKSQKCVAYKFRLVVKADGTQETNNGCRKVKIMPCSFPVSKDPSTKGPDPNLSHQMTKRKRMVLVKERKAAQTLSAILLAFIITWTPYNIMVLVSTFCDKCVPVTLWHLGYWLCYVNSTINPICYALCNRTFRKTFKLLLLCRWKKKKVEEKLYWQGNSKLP", "details": "rat M5, 0.1 nM [^3H]NMS", "method": "as §1"}},
  "data": [
    {"smiles": "COC(=O)C1=CC[C@@H]2CC[C@H]1N2C", "note": "[AEME, anhydroecgonine methyl ester]", "values": [
      {"measurement": "Ki", "setting": "Rat M1 mAChR", "value": 25.7, "unit": "µM"},
      {"measurement": "Ki", "setting": "Rat M3 mAChR", "value": 33.9, "unit": "µM"},
      {"measurement": "Ki", "setting": "Rat M2 mAChR", "value": 19.5, "unit": "µM"},
      {"measurement": "Ki", "setting": "Rat M4 mAChR", "value": 24.5, "unit": "µM"},
      {"measurement": "Ki", "setting": "Rat M5 mAChR", "value": 29.5, "unit": "µM"}
    ]}
  ]
}
